Reference: the NIST ThermoML archive (doi:10.1016/j.jct.2015.03.007)

Test: xn = mol fraction of the nth substance listed
Conditions: Fluid (supercritical or subcritical phases), Vibrating wire viscometry, x2 = 0.5174

C [methane] + O=C=O
Conditions	viscosity [mPa·s]
229 K, 14501 kPa	0.073
229.3 K, 12980 kPa	0.0703
229.4 K, 11654 kPa	0.06874
229.5 K, 10963 kPa	0.0679
229.5 K, 13698 kPa	0.0721
229.5 K, 14200 kPa	0.07231
229.6 K, 10168 kPa	0.06646
257.8 K, 19252 kPa	0.05496
257.8 K, 21263 kPa	0.0575
257.9 K, 12165 kPa	0.04274
257.9 K, 14190 kPa	0.047
257.9 K, 18239 kPa	0.0541
257.9 K, 22280 kPa	0.05903
257.9 K, 23289 kPa	0.05979
258 K, 16209 kPa	0.05083
287.7 K, 7818 kPa	0.01711
287.7 K, 8134 kPa	0.01748
287.7 K, 11663 kPa	0.02384
287.7 K, 12567 kPa	0.02598
287.7 K, 13512 kPa	0.02819
287.7 K, 14605 kPa	0.03051
287.7 K, 15897 kPa	0.03311
287.7 K, 17472 kPa	0.03599
287.7 K, 19398 kPa	0.0392
287.7 K, 21895 kPa	0.04255
287.7 K, 25061 kPa	0.04633
287.8 K, 8895 kPa	0.01845
287.8 K, 9137 kPa	0.01889
287.8 K, 9866 kPa	0.02011
287.8 K, 31033 kPa	0.0527
288.1 K, 1438 kPa	0.01349
288.1 K, 1553 kPa	0.0135
288.1 K, 2042 kPa	0.01369
288.1 K, 2553 kPa	0.01388
288.1 K, 3073 kPa	0.01402
288.1 K, 3570 kPa	0.01425
288.1 K, 5123 kPa	0.01498
288.1 K, 5405 kPa	0.01519
288.2 K, 4066 kPa	0.01442
288.2 K, 4594 kPa	0.01468
288.2 K, 6609 kPa	0.01593
288.2 K, 7116 kPa	0.01636
288.2 K, 9140 kPa	0.01892
288.2 K, 11159 kPa	0.02281
288.2 K, 13180 kPa	0.02721
288.2 K, 15201 kPa	0.03146
288.2 K, 19138 kPa	0.03829
288.2 K, 21458 kPa	0.04192
288.2 K, 23984 kPa	0.04512
288.2 K, 25172 kPa	0.04621
288.2 K, 26302 kPa	0.04748
317.8 K, 2056 kPa	0.01479
317.9 K, 1389 kPa	0.01457
317.9 K, 1545 kPa	0.01462
318 K, 2566 kPa	0.015
318 K, 3069 kPa	0.01518
318 K, 4578 kPa	0.01571
318 K, 5085 kPa	0.01587
318 K, 6297 kPa	0.01646
318.1 K, 6520 kPa	0.01648
318.1 K, 7151 kPa	0.01689
318.1 K, 7212 kPa	0.01688
318.1 K, 8226 kPa	0.01751
318.1 K, 9335 kPa	0.0182
318.1 K, 10457 kPa	0.01916
318.1 K, 11460 kPa	0.02013
318.1 K, 12573 kPa	0.02123
318.1 K, 13584 kPa	0.02235
318.1 K, 14713 kPa	0.02377
318.1 K, 15239 kPa	0.02432
318.1 K, 15724 kPa	0.02502
318.1 K, 16254 kPa	0.02562
318.1 K, 17842 kPa	0.02789
318.1 K, 20300 kPa	0.03122
318.1 K, 21518 kPa	0.03236
318.1 K, 22819 kPa	0.03405
318.1 K, 24011 kPa	0.03506
318.1 K, 25249 kPa	0.03636
318.1 K, 26412 kPa	0.03781
318.1 K, 27392 kPa	0.03909
318.1 K, 28884 kPa	0.04047
318.1 K, 30364 kPa	0.04187
318.1 K, 31857 kPa	0.04341
347.7 K, 4516 kPa	0.01665
347.8 K, 2161 kPa	0.01599
347.8 K, 2764 kPa	0.01606
347.8 K, 2964 kPa	0.01612
347.8 K, 3169 kPa	0.01615
347.8 K, 3278 kPa	0.01616
347.8 K, 3485 kPa	0.01631
347.8 K, 4003 kPa	0.01648
347.8 K, 5009 kPa	0.01682
347.8 K, 5509 kPa	0.01696
347.8 K, 5514 kPa	0.01701
347.8 K, 6032 kPa	0.01714
347.8 K, 6512 kPa	0.01731
347.8 K, 7016 kPa	0.01746
347.8 K, 7538 kPa	0.01766
347.8 K, 8039 kPa	0.01795
347.8 K, 8528 kPa	0.01812
347.8 K, 9051 kPa	0.01836
347.8 K, 10090 kPa	0.0189
347.8 K, 10617 kPa	0.01914
347.8 K, 11109 kPa	0.01948
347.8 K, 11596 kPa	0.01976
347.8 K, 12118 kPa	0.02008
347.8 K, 12605 kPa	0.02043
347.8 K, 13204 kPa	0.02102
347.8 K, 13713 kPa	0.02132
347.8 K, 14226 kPa	0.02172
347.8 K, 14732 kPa	0.02205
347.8 K, 16775 kPa	0.02364
347.8 K, 18782 kPa	0.02533
347.8 K, 20792 kPa	0.02732
347.9 K, 1555 kPa	0.01586
347.9 K, 1745 kPa	0.01584
347.9 K, 1956 kPa	0.01592
347.9 K, 2361 kPa	0.01592
347.9 K, 2566 kPa	0.01603
